# Patent US20200179488A1, “Secretin Receptor Agonists to Treat Diseases or Disorders of Energy Homeostasis” (Technische Universität München, priority 2016, published 2020)
# Tests used:
# primary brown adipocytes = assay: Microplate respirometry (oxygen consumption rate) in differentiated primary brown adipocytes of wildtype mice; format: cell-based, Mus musculus; settings: for stimulation of UCP1-mediated thermogenesis (uncoupled respiration): SCT 10 nM, ISO 500 nM, N=5 (FIG. 10A)
# Protocol: For culturing primary adipocytes male 129S1/SvImJ mice ([…] or UCP1-KO mice and wildtype littermates) at the age of 5-6 weeks were used for the dissection of inguinal and epidydimal white adipose tissue and interscapular brown adipose tissue depots. The tissue was carefully minced and treated with collagenase for 45 min at 37° C. The homogenate was filtered through a 250 μm nylon mesh and centrifuged at 500 g to collect the stromal vascular fraction (SVF). The SVF cell pellet was rinsed and seeded into XF96 V3-PS cell culture microplate (Seahorse Bioscience). After reaching confluency, induction medium containing 10% fetal bovine serum (FBS), 0.5 mM isobutylmethylxanthine, 125 nM indomethacin, 1 mM dexamethasone, 850 nM insulin and 1 nM T3 was added. After 2 days of induction, cells were maintained in differentiation media (10% FBS, 850 nM insulin and 1 nM T3). Medium was changed every two days. Respiration was measured on day 7 of differentiation. For determination of mRNA levels cells were stimulated at the 7th day of differentiation for 6 hours with secretin (rat, Tocris, Art Nr 1919) or isoproterenol (Sigma-Aldrich, Art Nr. 16504-100MG) and harvested subsequently. Oxygen consumption rate (OCR) was measured at 37° C. using a microplate respirometer (XF96 extracellular flux analyzer, Seahorse Bioscience). At day 7, the differentiation medium was replaced with prewarmed, unbuffered assay medium (DMEM basal medium supplemented with 25 mM glucose, 2 mM sodium pyruvate, 31 mM NaCl, 2 mM GlutaMax and 15 mg/l phenol red, pH 7.4) containing 2% of essentially fatty acid free bovine serum albumin (BSA), and incubated at 37° C. in a room air incubator for 1 h. Basal respiration was measured in untreated cells. Coupled respiration was inhibited by oligomycin treatment (5 μM). […] Maximum respiratory capacity was assessed after FCCP (Sigma-Aldrich) addition (1 μM). Finally, mitochondrial respiration was blocked by antimycin A (Sigma-Aldrich) (5 μM) treatment and the residual OCR was considered to be due to non-mitochondrial reactions. Oxygen consumption rates were calculated using the Seahorse XF-96 software. Data were exported and reconstructed in GraphPad Prism 4.0 software. For each condition the lowest OCR after antimycin A addition was subtracted from all other values. Respiration rates following oligomycin addition were defined as basal OCR. For induction of OCR by isoproterenol, secretin or FCCP the highest values measured after addition of the respective molecule was used. The “OCR in % of basal OCR” and “OCR in % of FCCP OCR” were calculated as follows: Method: To test whether SCT can activate thermogenesis in brown adipocytes, we measured UCP1-mediated uncoupled respiration in cultured adherent intact primary brown adipocytes, according to a protocol recently established in our lab (Li Y, Fromme T, Schweizer S, Schöttl T, Klingenspor M. EMBO Rep. 2014 October; 15(10):1069-76. doi: 10.15252/embr.201438775; […]. Meaningful respirometric measurements of UCP1-mediated thermogenesis. Biochimie. 2017 March; 134:56-61. doi: 10.1016/j.biochi.2016.12.005.). The cellular oxygen consumption rate (OCR) of primary adipocytes was determined using an XF96 Extracellular Flux Analyzer (Seahorse Bioscience). Briefly, primary adipocytes were cultured and differentiated in XF96 microplates. At day 7 of differentiation, cells were washed once with prewarmed, unbuffered assay medium (DMEM basal medium supplemented with 25 mM glucose, 31 mM NaCl, 2 mM GlutaMax and 15 mg/l phenol red, pH 7.4) (basal assay medium) and then the medium was replaced with basal assay medium containing 1-2% essentially fatty acid free bovine serum albumin (BSA), and incubated at 37° C. in a room air incubator for 1 h. The drug injections ports of the sensor cartridges were loaded with the assay reagents at 10× in basal assay medium (no BSA). All respiration assays were performed in the presence of bovine serum albumin to buffer free fatty acid levels in the respiration medium. […]
# UCP1 knockout mice = assay: Indirect calorimetry, heat production after i.p. injection in UCP1 knockout mice; format: in vivo, Mus musculus; settings: 0.5 mg/kg i.p., 27° C., 60 minutes, p=0.482 (FIG. 6B, 6C)
# Protocol: Indirect calorimetric measurements in mice were performed using an open flow respirometry system (Phenomaster, TSE Systems, Bad Homburg/Germany). All animals were kept at room temperature or cold-acclimated at 4° C. for 4 days as indicated in the results section. For the gas exchange measurement (O2 consumption and CO2 production) mice were placed individually in metabolic cages (type I, 3 liter volume) without food and water and transferred to a climate cabinet (TPK 600, Feutron, Greiz/Germany). The air was continuously pulled through the cages at a flow rate of 33 l/h. For gas analysis a subsample was dried in a cooling trap and analyzed for gas exchange. Mice in the cabinet were preconditioned to 30° C. and the basal metabolic rate (BMR) in the post-absorptive state was measured between 8:00 a.m.-12:00 p.m. The O2 consumption and CO2 production of each mouse was analyzed every 5 min over a period of 1 min. […] After injection the O2 consumption and CO2 production rate of each mouse was recorded for 45-60 min with high-resolution recordings at 10 sec intervals. […] Respiratory exchange ratios (RER) and heat production (HP) were calculated from the following formula: (RER=CO2 production/O2 consumption) and (HP[mW]=(4.44+1.43*respiratory exchange ratio)*oxygen consumption [ml/h]).
substance,measurement,setting,value
secretin,increase of OCR above basal OCR,"primary brown adipocytes; 0.5 μM, after oligomycin, day 7 of differentiation (FIG. 2B)",about 200%
same,uncoupled OCR as share of maximal uncoupled OCR induced by FCCP,"primary brown adipocytes; 0.5 μM, day 7 of differentiation (FIG. 2C)",about 75%
same,induction of oxygen consumption in cells from wildtype control mice,"primary brown adipocytes; 129/S1 background, FIG. 3",increase in oxygen consumption
same,stimulation of UCP1-mediated thermogenesis (uncoupled respiration),primary brown adipocytes,activate UCP1-dependent thermogenesis
same,stimulation of UCP1-mediated thermogenesis (uncoupled respiration),primary brown adipocytes; listed as SCT,as potent as ISO (500 nM)
same,dose dependence and potency of activation of uncoupled respiration,"primary brown adipocytes; compared to isoproterenol, data not shown",dose-dependent with a higher potency at lower concentrations as compared to isoproterenol
same,heat production and its AUC versus PBS,UCP1 knockout mice,no difference
